# Molecular target: T1, human cardiac ion channel proteins hKir3.1/Kir3.4 (Homo sapiens, UniProt P48544+P48549)
# T1 construct: expressed in transfected cells
# T1 sequence (P48549 1-501): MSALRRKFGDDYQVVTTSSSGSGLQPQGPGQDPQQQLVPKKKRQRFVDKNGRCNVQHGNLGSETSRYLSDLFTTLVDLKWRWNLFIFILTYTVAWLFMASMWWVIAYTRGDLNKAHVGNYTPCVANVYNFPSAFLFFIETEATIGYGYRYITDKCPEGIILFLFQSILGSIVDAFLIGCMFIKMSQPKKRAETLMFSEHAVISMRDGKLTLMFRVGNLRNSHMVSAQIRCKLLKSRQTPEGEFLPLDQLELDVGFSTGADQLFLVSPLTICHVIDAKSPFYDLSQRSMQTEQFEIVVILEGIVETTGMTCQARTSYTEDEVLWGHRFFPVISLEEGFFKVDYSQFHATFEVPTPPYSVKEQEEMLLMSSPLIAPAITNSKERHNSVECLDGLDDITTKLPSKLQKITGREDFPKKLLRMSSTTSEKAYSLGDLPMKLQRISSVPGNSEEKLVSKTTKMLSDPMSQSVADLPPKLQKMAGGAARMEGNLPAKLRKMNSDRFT
# T1 sequence (P48544 1-419): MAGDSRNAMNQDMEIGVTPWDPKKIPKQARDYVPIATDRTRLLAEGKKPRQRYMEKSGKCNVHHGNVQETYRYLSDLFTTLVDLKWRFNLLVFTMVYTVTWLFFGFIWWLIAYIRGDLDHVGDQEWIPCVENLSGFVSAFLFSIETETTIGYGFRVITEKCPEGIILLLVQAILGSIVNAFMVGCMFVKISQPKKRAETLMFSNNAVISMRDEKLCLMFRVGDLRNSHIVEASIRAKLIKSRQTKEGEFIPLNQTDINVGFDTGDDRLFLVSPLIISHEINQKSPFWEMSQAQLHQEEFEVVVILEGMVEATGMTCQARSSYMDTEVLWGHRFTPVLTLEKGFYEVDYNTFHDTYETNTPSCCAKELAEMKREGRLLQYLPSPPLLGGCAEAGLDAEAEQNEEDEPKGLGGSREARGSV
# Test: Atomic Absorption Screening (AAS) Rb efflux assay of hKir3.1/Kir3.4 block, carbachol/high K+ stimulated, 10-pt or 7-pt CR
# Type: cell-based
# Details: 7-pt CR (0.037 to 27 μmol/L), AAS Rb efflux, CHO-K1 cells expressing hKir3.1/Kir3.4; mean of >3 replicates; read-out: IKACh IC50 7-pt CR, AAS
# Method in brief: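 Mean IC50s derive from >4 replicates over 0.003–67 μmol/L (10-point) or >3 replicates over 0.037–27 μmol/L (7-point), both threefold steps. Rb-loaded (3 h, 37° C) CHO-K1 cells stably expressing hKir3.1/Kir3.4 saw compound for 5 min at RT before 10-min channel opening by carbachol 10 μM/KCl 20 mM final. Released Rb was quantified by atomic absorption.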
row,Compound,IC50
1,"CC(C)[C@@H](CN1CCCCC1)N(C)C(=O)c1ccc(Cl)c(Cl)c1 [Example 16.28, 3,4-Dichloro-N-methyl-N-[(1S)-2-methyl-1-(piperidin-1-ylmethyl)propyl]benzamide]",0.84 µM
2,"Cc1c(F)cccc1C(=O)N(C)[C@H](CN1CCCC1)C(C)C [Example 16.13, (S)-3-Fluoro-N,2-dimethyl-N-(3-methyl-1-(pyrrolidin-1-yl)butan-2-yl)benzamide]",5.3 µM
3,"CC(C)[C@@H](CN1CCCCC1)N(C)C(=O)c1ccc(F)c(Cl)c1 [Example 16.33, 3-Chloro-4-fluoro-N-methyl-N-[(1S)-2-methyl-1-(piperidin-1-ylmethyl)propyl]-benzamide]",6.7 µM
4,"CC(C)[C@@H](CN1CCCC1)N(C)C(=O)c1cc(F)cc(C(F)(F)F)c1 [Example 16.8, (S)-3-Fluoro-N-methyl-N-(3-methyl-1-(pyrrolidin-1-yl)butan-2-yl)-5-(trifluoromethyl)benzamide]",8 µM
5,"CC(C)[C@@H](CN1CCCC1)N(C)C(=O)c1ccccc1F [Example 16.18, (S)-2-Fluoro-N-methyl-N-(3-methyl-1-(pyrrolidin-1-yl)butan-2-yl)benzamide]",11 µM
6,"CC(C)[C@@H](CN1CC[C@H](O)C1)N(C)C(=O)c1cccc(Cl)c1F [Example 16.39, 3-Chloro-2-fluoro-N-[(1S)-1-{[(3S)-3-hydroxypyrrolidin-1-yl]methyl}-2-methylpropyl]-N-methylbenzamide]",3.9 µM
7,"CC(C)[C@@H](CN1CCCC1)N(C)C(=O)c1ccc(F)cc1C(F)(F)F [Example 16.23, (S)-4-Fluoro-N-methyl-N-(3-methyl-1-(pyrrolidin-1-yl)butan-2-yl)-2-(trifluoromethyl)benzamide]",6.7 µM
8,"CC(C)[C@@H](CN1CCCCC1)N(C)C(=O)c1ccc(Cl)cc1Cl [Example 16.30, 2,4-Dichloro-N-methyl-N-[(1S)-2-methyl-1-(piperidin-1-ylmethyl)propyl]benzamide]",1.7 µM

# Same assay, conditions: 10-pt CR (0.003 to 67 μmol/L), AAS Rb efflux, CHO-K1 cells expressing hKir3.1/Kir3.4; mean of >4 replicates; read-out: IKACh IC50 10-pt CR, AAS
row,IC50,Compound
1,19 µM,"Cc1cc(C(=O)N(C)[C@H](CCN2CCCC2)C(C)C)ccc1F [Example 13.4, (R)-4-Fluoro-N,3-dimethyl-N-(4-methyl-1-(pyrrolidin-1-yl)pentan-3-yl)benzamide]"
2,0.33 µM,"CN(C(=O)c1ccc(C#N)cc1F)[C@H](CN1CC(O)C1)C1CCCCC1 [Example 36.4, 4-Cyano-N-[(1S)-1-cyclohexyl-2-(3-hydroxyazetidin-1-yl)ethyl]-2-fluoro-N-methylbenzamide]"
3,5.6 µM,"CCN(C(=O)c1ccc(Cl)cc1)[C@H](CN1CCC1)C(C)C [Example 11, (S)—N-(1-(Azetidin-1-yl)-3-methylbutan-2-yl)-4-chloro-N-ethylbenzamide]"
4,19 µM,"CC(C)[C@@H](CCN1CCCC1)N(C)C(=O)c1cccc(Cl)c1 [Example 13.3, (R)-3-Chloro-N-methyl-N-(4-methyl-1-(pyrrolidin-1-yl)pentan-3-yl)benzamide]"
5,12 µM,"CC(C)[C@@H](CN1CCC1)N(C)C(=O)c1cccc(Cl)c1 [Example 1.13, (S)-N-(1-(Azetidin-1-yl)-3-methylbutan-2-yl)-3-chloro-N-methylbenzamide]"
6,0.049 µM,"CN(C(=O)c1ccc(Cl)cc1)[C@H](CN1CC(O)C1)C1CCCCC1 [Example 36.2, 4-Chloro-N-[(1S)-1-cyclohexyl-2-(3-hydroxyazetidin-1-yl)ethyl]-N-methylbenzamide]"
7,3.1 µM,"CN(C(=O)c1ccc(F)c(F)c1)[C@H](CN1CC(O)(C2CC2)C1)C1CC1 [Example 9.3, (S)-N-(1-Cyclopropyl-2-(3-cyclopropyl-3-hydroxyazetidin-1-yl)ethyl)-3,4-difluoro-N-methylbenzamide]"
8,5.8 µM,"CC(C)[C@@H](CN1C[C@H](O)[C@@H](O)C1)N(C)C(=O)c1ccc(Cl)cc1 [Example 8.14, 4-Chloro-N-((S)-1-((3S,4S)-3,4-dihydroxypyrrolidin-1-yl)-3-methylbutan-2-yl)-N-methylbenzamide]"
9,2.3 µM,"COCCN(C(=O)c1ccc(Br)cc1)[C@H](CN1CCCC1)C(C)C [Example 15.5, (S)-4-Bromo-N-(2-methoxyethyl)-N-(3-methyl-1-(pyrrolidin-1-yl)butan-2-yl)benzamide]"
10,2.5 µM,"CC(C)[C@@H](CN1CC(O)C1)N(C)C(=O)c1ccc(Br)cc1 [Example 6.3, (S)-4-Bromo-N-(1-(3-hydroxyazetidin-1-yl)-3-methylbutan-2-yl)-N-methylbenzamide]"
11,12 µM,"CN(C(=O)c1ccc(F)c(F)c1)[C@H](CN1CCC1)C1CC1 [Example 9.11, (S)-N-(2-(Azetidin-1-yl)-1-cyclopropylethyl)-3,4-difluoro-N-methylbenzamide]"
12,0.32 µM,"CCCC[C@@H](CN1CC(O)C1)N(C)C(=O)c1ccc(F)c(F)c1 [Example 33.2, 3,4-Difluoro-N-[(2S)-1-(3-hydroxyazetidin-1-yl)hexan-2-yl]-N-methylbenzamide]"
13,11 µM,"CCC[C@@H](CN1CC(O)C1)N(C(=O)c1ccc(F)c(F)c1)C(C)C [Example 34.2, 3,4-Difluoro-N-[(2S)-1-(3-hydroxyazetidin-1-yl)pentan-2-yl]-N-(propan-2-yl)benzamide]"
14,0.48 µM,"COc1ccc(C(=O)N(C)[C@H](CN2CC(O)C2)C2CCC2)cc1F [Example 39.6, (S)—N-(1-Cyclobutyl-2-(3-hydroxyazetidin-1-yl)ethyl)-3-fluoro-4-methoxy-N-methylbenzamide]"
15,5.7 µM,"COCCN(C(=O)c1ccc(Cl)cc1)[C@H](CN1CCCC1)C(C)C [Example 15.4, (S)-4-Chloro-N-(2-methoxyethyl)-N-(3-methyl-1-(pyrrolidin-1-yl)butan-2-yl)benzamide]"
16,2.1 µM,"CCc1ccc(C(=O)N(C)[C@@H](CC(C)C)CN2CC(O)C2)cc1 [Example 38.3, 4-Ethyl-N-[(2S)-1-(3-hydroxyazetidin-1-yl)-4-methylpentan-2-yl]-N-methylbenzamide]"
17,13 µM,"CN(C(=O)c1ccccc1)[C@@H](CN1CC(O)C1)C1CCC1 [Example 35.14, N-[(1R)-1-Cyclobutyl-2-(3-hydroxyazetidin-1-yl)ethyl]-N-methylbenzamide]"
18,1.2 µM,"CN(C(=O)c1ccc(F)c(Cl)c1)[C@H](CN1CC(O)(C2CC2)C1)C1CC1 [Example 9.2, (S)-3-Chloro-N-(1-cyclopropyl-2-(3-cyclopropyl-3-hydroxyazetidin-1-yl)ethyl)-4-fluoro-N-methylbenzamide]"
19,11 µM,"CC(C)[C@@H](CN1CCCC1)N(C(=O)c1ccc(Cl)cc1)C1CCCC1 [Example 20, (S)-4-Chloro-N-cyclopentyl-N-(3-methyl-1-(pyrrolidin-1-yl)butan-2-yl)benzamide]"
20,11 µM,"CC(C)[C@@H](CN1CCCC(F)(F)C1)N(C)C(=O)c1ccc(Br)cc1 [Example 16.5, (S)-4-Bromo-N-(1-(3,3-difluoropiperidin-1-yl)-3-methylbutan-2-yl)-N-methyl-benzamide]"

row,Compound,IC50
1,"Cc1c(F)cccc1C(=O)N(C)[C@H](CN1CCCC1)C(C)C [Example 16.13, (S)-3-Fluoro-N,2-dimethyl-N-(3-methyl-1-(pyrrolidin-1-yl)butan-2-yl)benzamide]",14 µM
2,"CN(C(=O)c1ccc(F)c(Cl)c1)[C@H](CN1CCCC1)C1CC1 [Example 13.1, (S)-3-Chloro-N-(1-cyclopropyl-2-(pyrrolidin-1-yl)ethyl)-4-fluoro-N-methylbenzamide]",2.5 µM
3,"CCC[C@@H](CN1CCC1)N(C)C(=O)c1ccc(Br)cc1 [Example 1.3, (S)-N-(1-(Azetidin-1-yl)pentan-2-yl)-4-bromo-N-methylbenzamide]",3.1 µM
4,"CN(C(=O)c1ccc(F)c(F)c1)[C@H](CN1CC(O)C1)C1CCCC1 (single isomer, unassigned) [32.1, isomer 1]",0.26 µM

# Same assay, conditions: printed as IC50 >67 μM in the 10-pt CR assay or IC50 >27 μM in the 7-pt CR assay; assay format per compound not stated; read-out: IC50
row,IC50,Compound
1,> 27 µM,CC(CN1CCCC1)N(C)C(=O)c1cccc(Cl)c1 (centres unmarked) [3-Chloro-N-methyl-N-(1-methyl-2-pyrrolidin-1-ylethyl)benzamide]
2,> 27 µM,CC(C)[C@@H](CN1CC(C)(O)C1)N(C)C(=O)c1ccccc1 [(S)-N-(1-(3-Hydroxy-3-methylazetidin-1-yl)-3-methylbutan-2-yl)-N-methylbenzamide]
3,> 27 µM,CC(C)[C@@H](CN1CC(F)C1)N(C)C(=O)c1ccc(C#N)cc1F [(S)-4-Cyano-2-fluoro-N-(1-(3-fluoroazetidin-1-yl)-3-methylbutan-2-yl)-N-methylbenzamide]
